Source: patent US20260327628A1, “AN RNA APTAMER THAT BINDS TO ASP7967 OR AN ANALOGUE THEREOF” (priority 2022, published 2026)
pKd: −log10 of the molar value. Entries after “also recorded” stand apart in the source; their conditions may differ.

Key:
AC17-4 RNA aptamer = experiment: Affinity measurement by ITC, AC17-4; assay type: binding; details: 37 °C
Description: ITC experiments were carried out as described previously^26 with some modifications. Template DNA for in vitro transcription was prepared by primer extension using Q5 High-Fidelity DNA Polymerase. AC17-4 RNA aptamer (5′-[…]-3′ (SEQ ID NO: 50)) was prepared using HiScribe T7 High Yield RNA Synthesis Kit (NEB) according to the manufacturer's instructions. The transcription product (100 μl) was treated with 2 U TURBO DNase at 37° C. for 30 min. The RNA was precipitated with ammonium acetate and ethanol and dissolved in water. The solution was further extracted with phenol-chloroform and ethanol precipitated. The RNA was purified by denaturing polyacrylamide gel electrophoresis (PAGE) and the main band was extracted from the gel with TE buffer (10 mM Tris-HCl, pH 7.0, 0.1 mM EDTA). […] RNA concentration was determined by absorbance at 260 nm according to OligoCalc. […]
Titration was performed at 37° C. using MicroCal PEAQ-ITC (Malvern). […] Raw data were analysed by MicroCal PEAQ-ITC analysis software ver. […]
Conventional SELEX requires immobilization of the target molecule on solid phase on which an RNA pool containing randomized sequences are applied. […] The sequences enriched during the SELEX experiment were analyzed by high-throughput (Illumina) sequencing. […]

[1] = in vivo; cited from earlier work
[2] = test system: potassium channel Kv12.2 encoded by the Kcnh3/BEC1 gene; details: cited from earlier work

For `Fc1ccc(Nc2nc(NCc3ncccn3)nc(Nc3ccccc3)n2)cc1` [ASP2905, reference compound], the pKd (AC17-4 RNA aptamer) is given as 7.32, the antipsychotic activities [1] is given as “has antipsychotic activities” and the “inhibition of Kv12.2 (KCNH3) in words” value [2] is given as “potent and selective inhibitor; also recorded: known inhibitor”.
